Structures are written as SMILES.

The data set is described as follows: method code SF-AS, from PMID: 6686445. Conditions: pH 7.4.
A word on the logD: it is the decadic logarithm of the distribution of all forms, ionised or not, between an organic phase and buffer at a given pH. Low values mean lower lipophilicity, high ones higher lipophilicity. With `O=C1CN=C(c2ccc(C(F)(F)F)cc2)c2ccccc2N1`, the logD amounted to 3.34.

Consider `C[C@@H]1N=C(c2ccccc2Cl)c2cc([N+](=O)[O-])ccc2NC1=O`, for which the logD turned out to be 2.72.

For `O=C1CN=C(c2ccc(F)cc2)c2cc(Cl)ccc2N1`, the log distribution coefficient (logD) was 2.9.

As for `N#Cc1ccc2c(c1)C(c1ccccc1)=NCC(=O)N2`, the log distribution coefficient (logD) came to 1.82.

In the case of `O=C1CN=C(c2ccccc2Cl)c2cc(Cl)ccc2N1`, the pH-dependent lipophilicity (logD) came to 3.15.

With `COCN1C(=O)C(O)N=C(c2ccccc2)c2cc(N)ccc21` (stereo not given), the logD was 0.75.

`CN1C(=O)CN=C(c2ccccc2Cl)c2cc(Cl)ccc21` gave a logD of 3.12.

Compound `CSCN1C(=O)CN=C(c2ccccc2)c2cc(Cl)ccc21` yielded a log distribution coefficient (logD) of 3.32.

`CC1N=C(c2ccccc2Cl)c2cc(Cl)ccc2N(C)C1=O` (stereo not given): the logD came out at 3.4.

In the case of `CN1C(=O)CN=C(c2c(Cl)cccc2Cl)c2cc(Cl)ccc21`, the pH-dependent lipophilicity (logD) is 3.04.

`O=C1CN=C(c2ccccc2F)c2cc(Cl)ccc2N1` returned a logD of 2.7.

The compound `Cc1ccccc1C1=NCC(=O)N(C)c2ccc(Cl)cc21` displayed a logD of 3.03.

In turn, `CN1C(=O)CN=C(c2ccccc2F)c2cc(Cl)ccc21` registered a log distribution coefficient (logD) of 2.75.

In the case of `COCN1C(=O)CN=C(c2ccccc2)c2cc([N+](=O)[O-])ccc21`, the logD was 2.05.

In the case of `O=C1CN=C(c2ccccc2C(F)(F)F)c2cc([N+](=O)[O-])ccc2N1`, the pH-dependent lipophilicity (logD) amounted to 2.51.

For `O=C1CN=C(c2ccccc2)c2cc(F)ccc2N1`, the logD was found to be 2.32.

`Cc1ccc2c(c1)C(c1ccccc1)=NCC(=O)N2` gave a log distribution coefficient (logD) of 2.62.

In turn, `CCc1ccc2c(c1)C(c1ccccc1F)=NCC(=O)N2` gave a log distribution coefficient (logD) of 2.92.

In the case of `CSc1ccc2c(c1)C(c1ccccc1)=NCC(=O)N2C`, the logD is 2.95.

For `COc1ccc2c(c1)C(c1ccccc1)=NCC(=O)N2`, the logD is 2.24.

In turn, `COCN1C(=O)CN=C(c2ccccc2)c2cc(N)ccc21` gave a pH-dependent lipophilicity (logD) of 1.32.

As to `O=C1CN=C(c2ccccc2F)c2cc(Cl)ccc2N1CC(O)CO` (stereo not given), the log distribution coefficient (logD) is 1.51.

As for `O=C1CN=C(c2ccccc2F)c2ccccc2N1`, the log distribution coefficient (logD) came out at 2.38.

For the compound `CN1C(=O)CN=C(c2ccccc2F)c2cc(I)ccc21`, the logD turned out to be 3.14.

In turn, `O=C1CN=C(c2c(F)cccc2F)c2ccc(Cl)cc2N1` yielded a logD of 2.88.

Consider `CCN1C(=O)CN=C(c2ccccc2)c2cc(N)ccc21`, for which the pH-dependent lipophilicity (logD) was 1.81.

Turning to `CN1C(=O)CN=C(c2ccccc2)c2cc(N)ccc21`, the logD came out at 1.46.

Consider `O=C1CN=C(c2ccccc2)c2cc(C(F)(F)F)ccc2N1`, for which the logD stood at 3.1.

`O=C1CN=C(c2ccccc2)c2cc([N+](=O)[O-])ccc2N1CC(O)CO` (stereo not given) came in with a log distribution coefficient (logD) of 0.96.

`O=C1CN=C(c2ccccc2C(F)(F)F)c2ccccc2N1` had a pH-dependent lipophilicity (logD) of 2.47.

For `O=C1CN=C(c2ccccc2Br)c2cc(Cl)ccc2N1`, the logD amounted to 3.17.

`CN1C(=O)CN=C(c2ccc(Cl)cc2)c2cc(F)ccc21`: the log distribution coefficient (logD) was found to be 3.1.

Regarding `COCN1C(=O)CN=C(c2ccccc2)c2cc(Cl)ccc21`, the logD is 2.86.

Consider `COCN1C(=O)CN=C(c2ccccc2F)c2cc(N)ccc21`, for which the logD stood at 1.31.

The compound `COc1ccccc1C1=NCC(=O)Nc2ccc(Cl)cc21` returned a logD of 2.63.

Take `CC(=O)c1ccc2c(c1)C(c1ccccc1F)=NCC(=O)N2`: the logD came to 1.75.

`O=C1CN=C(c2c(F)cccc2F)c2cc(Cl)ccc2N1` had a pH-dependent lipophilicity (logD) of 2.68.

For `O=C1CN=C(c2ccccc2[N+](=O)[O-])c2cc([N+](=O)[O-])ccc2N1`, the logD is 1.61.

The compound `O=C1CN=C(c2ccccc2)c2ccccc2N1` gave a logD of 2.18.

As for `COc1cccc(C2=NCC(=O)Nc3ccc(Cl)cc32)c1`, the logD was determined as 3.14.

In turn, `CSc1ccccc1C1=NCC(=O)Nc2ccc(Cl)cc21` displayed a logD of 2.99.

Consider `O=C1CN=C(c2ccccc2F)c2cc([N+](=O)[O-])ccc2N1`, for which the logD came out at 2.15.

Compound `COCN1C(=O)CN=C(c2ccccc2Cl)c2cc(Cl)ccc21` yielded a logD of 3.23.

Consider `CSCN1C(=O)CN=C(c2ccccc2)c2cc(N)ccc21`, for which the logD was 1.92.

`COc1ccc(C2=NCC(=O)N(C)c3ccc(Cl)cc32)cc1` displayed a pH-dependent lipophilicity (logD) of 3.15.

Consider `Cc1ccccc1C1=NCC(=O)Nc2ccc(Cl)cc21`, for which the logD worked out at 3.12.

Compound `CN1C(=O)CN=C(c2ccccc2F)c2cc(N)ccc21` registered a logD of 1.3.

`CCN1C(=O)CN=C(c2ccccc2)c2cc(Cl)ccc21` gave a log distribution coefficient (logD) of 3.21.

In turn, `O=C1CN=C(c2ccccc2F)c2cc(Cl)c(Cl)cc2N1` gave a pH-dependent lipophilicity (logD) of 3.63.

In the case of `O=C1CN=C(c2cccc(C(F)(F)F)c2)c2ccccc2N1`, the logD turned out to be 3.19.

The record behind these values is the SangsterLogP compilation.
